In patent US20230150986A1, “ANTAGONISTS OF THE MUSCARINIC ACETYLCHOLINE RECEPTOR M4” (Vanderbilt University, priority 2019, published 2023):

Key:
Format in all cases: in vitro ADME
cytochrome P450 2D6 = molecular target: T1, cytochrome P450 2D6 (Homo sapiens, UniProt P10635); assay: Cytochrome P450 cocktail inhibition assay, 2D6 (dextromethorphan); details: human liver microsomes 0.1 mg/mL; read-out: CYP Inhibition (2D6)
T1 construct: human liver microsomes (HLM; 0.1 mg/mL); from tissue; host or cells: human liver microsomes
Experimental: (§1) Solutions of substrates for cytochrome P450 enzymes (1A2: Phenacetin, 10 μM; 2C9: Diclofenac, 5 μM; 2D6: Dextromethorphan, 5 μM; 3A4: Midazolam, 2 μM; as a mixture), test compound (VU6028418; multiple concentrations), and the positive control for pan-P450 inhibition (miconazole; multiple concentrations) were prepared. A reaction mixture of assay buffer (100 mM Kpi at pH 7.4), human liver microsomes (HLM; 0.1 mg/mL), and the substrate mixture were aliquoted into a 96-deepwell plate. The test compound and control were then added to the plate such that the final concentration of test compound ranged from 0.1-30 μM (two replicates per concentration). The assay plate was vortexed (briefly) and pre-incubated at 37° C. in an orbital shaker for 15 minutes. The reaction was initiated by addition of NADPH (1 mM, final concentration) and continued for 8 min before it was quenched by acetonitrile (2× volume) containing an LCMS internal standard (carbamazepine, 50 nM). The plate was then centrifuged (4000 rcf, 4° C., 10 min), and the resulting supernatant was diluted with water (1× volume) for LC-MS/MS. Assay samples were analyzed via electrospray ionization on an AB Sciex API-4000 (Foster City, Calif.) triple-quadrupole mass spectrometer coupled to Agilent Technologies 1290 Infinity series pumps (Santa Clara, Calif.), and a Leap Technologies CTC PAL auto -sampler (Carrboro, NC). Analytes were separated by gradient elution on a Phenomenex Kinetex (C18 2.1×50 mm 5 μm) column (Torrance, Calif.) thermostated at 40° C. The HPLC mobile phase A was 0.1% formic acid in water (pH unadjusted), and the mobile phase B was 0.1% formic acid in acetonitrile (pH unadjusted). […] The total run time was 2.5 min and the HPLC flow rate was 0.5 mL/min. The source temperature was set at 500° C. and mass spectral analyses were performed using multiple reaction monitoring (MRM) with mass transitions specific to each substrate's metabolite utilizing a Turbo-Ionspray® source in positive ionization mode (5.0 kV spray voltage). The test compound and control IC50 values for each enzyme were obtained by quantitating the inhibition of metabolite formation for each substrate. A 0 μM test compound (or control) conditions represented 100% enzymatic activity, and the effect of increasing test compound concentrations on enzymatic activity was then calculated from the % of control activity. Inhibition curves were fitted using XLfit 5.2.2 (four-parameter logistic model, equation 201) in order to calculate the concentration that produced half-maximal inhibition (IC50) of each enzyme.

cytochrome P450 3A4 = molecular target: T2, cytochrome P450 3A4 (Homo sapiens, UniProt P08684); assay: Cytochrome P450 cocktail inhibition assay, 3A4 (midazolam); details: human liver microsomes 0.1 mg/mL; read-out: CYP Inhibition (3A4)
T2 construct: human liver microsomes (HLM; 0.1 mg/mL); from tissue; host or cells: human liver microsomes
Experimental: as §1

cytochrome P450 2C9 = molecular target: T3, cytochrome P450 2C9 (Homo sapiens, UniProt P11712); assay: Cytochrome P450 cocktail inhibition assay, 2C9 (diclofenac); details: human liver microsomes 0.1 mg/mL; read-out: CYP Inhibition (2C9)
T3 construct: human liver microsomes (HLM; 0.1 mg/mL); from tissue; host or cells: human liver microsomes
Experimental: as §1

cytochrome P450 1A2 = molecular target: T4, cytochrome P450 1A2 (Homo sapiens, UniProt P05177); assay: Cytochrome P450 cocktail inhibition assay, 1A2 (phenacetin); details: human liver microsomes 0.1 mg/mL; read-out: CYP Inhibition (1A2)
T4 construct: human liver microsomes (HLM; 0.1 mg/mL); from tissue; host or cells: human liver microsomes
T4 sequence (P05177 1-516): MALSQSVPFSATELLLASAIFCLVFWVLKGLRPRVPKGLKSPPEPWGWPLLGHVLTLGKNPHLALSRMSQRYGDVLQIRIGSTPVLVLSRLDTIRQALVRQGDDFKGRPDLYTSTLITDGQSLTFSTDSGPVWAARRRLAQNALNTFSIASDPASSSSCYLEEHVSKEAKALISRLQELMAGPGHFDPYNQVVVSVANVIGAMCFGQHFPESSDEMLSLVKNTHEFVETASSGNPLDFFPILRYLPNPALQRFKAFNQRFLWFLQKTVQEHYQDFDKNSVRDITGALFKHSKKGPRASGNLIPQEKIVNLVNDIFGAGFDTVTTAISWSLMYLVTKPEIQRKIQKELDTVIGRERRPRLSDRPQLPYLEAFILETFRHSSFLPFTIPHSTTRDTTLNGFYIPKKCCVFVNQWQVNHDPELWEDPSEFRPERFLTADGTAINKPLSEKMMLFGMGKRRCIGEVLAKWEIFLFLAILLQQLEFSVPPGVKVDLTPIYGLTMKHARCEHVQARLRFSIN
Experimental: as §1

P-gp = molecular target: T5, P-gp (Homo sapiens, UniProt P08183); assay: P-gp efflux in MDR1-MDCK cell monolayers; details: dog, pH 7.4, MDCK-MDR1, 5 μM
T5 construct: expressed in transfected cells; host or cells: MDR1-MDCK
Experimental: MDR1-MDCK cell monolayers were grown to confluence on collagen-coated, microporous membranes in 12-well assay plates. The permeability assay buffer was Hanks' balanced salt solution containing 10 mM HEPES and 15 mM glucose at a pH of 7.4. The buffer in the receiver chamber also contained 1% bovine serum albumin. The dosing solution concentration was 5 μM of test article in the assay buffer. Cell monolayers were dosed on the apical side (A- to -B) or basolateral side (B- to -A) and incubated at 37° C. with 5% CO2 in a humidified incubator. Samples were taken from the donor and receiver chambers at 120 minutes Each determination was performed in duplicate. The flux of lucifer yellow was also measured post-experimentally for each monolayer to ensure no damage was inflicted to the cell monolayers during the flux period. All samples were assayed by LC-MS/MS using electrospray ionization.

T5 sequence (P08183 whole entry): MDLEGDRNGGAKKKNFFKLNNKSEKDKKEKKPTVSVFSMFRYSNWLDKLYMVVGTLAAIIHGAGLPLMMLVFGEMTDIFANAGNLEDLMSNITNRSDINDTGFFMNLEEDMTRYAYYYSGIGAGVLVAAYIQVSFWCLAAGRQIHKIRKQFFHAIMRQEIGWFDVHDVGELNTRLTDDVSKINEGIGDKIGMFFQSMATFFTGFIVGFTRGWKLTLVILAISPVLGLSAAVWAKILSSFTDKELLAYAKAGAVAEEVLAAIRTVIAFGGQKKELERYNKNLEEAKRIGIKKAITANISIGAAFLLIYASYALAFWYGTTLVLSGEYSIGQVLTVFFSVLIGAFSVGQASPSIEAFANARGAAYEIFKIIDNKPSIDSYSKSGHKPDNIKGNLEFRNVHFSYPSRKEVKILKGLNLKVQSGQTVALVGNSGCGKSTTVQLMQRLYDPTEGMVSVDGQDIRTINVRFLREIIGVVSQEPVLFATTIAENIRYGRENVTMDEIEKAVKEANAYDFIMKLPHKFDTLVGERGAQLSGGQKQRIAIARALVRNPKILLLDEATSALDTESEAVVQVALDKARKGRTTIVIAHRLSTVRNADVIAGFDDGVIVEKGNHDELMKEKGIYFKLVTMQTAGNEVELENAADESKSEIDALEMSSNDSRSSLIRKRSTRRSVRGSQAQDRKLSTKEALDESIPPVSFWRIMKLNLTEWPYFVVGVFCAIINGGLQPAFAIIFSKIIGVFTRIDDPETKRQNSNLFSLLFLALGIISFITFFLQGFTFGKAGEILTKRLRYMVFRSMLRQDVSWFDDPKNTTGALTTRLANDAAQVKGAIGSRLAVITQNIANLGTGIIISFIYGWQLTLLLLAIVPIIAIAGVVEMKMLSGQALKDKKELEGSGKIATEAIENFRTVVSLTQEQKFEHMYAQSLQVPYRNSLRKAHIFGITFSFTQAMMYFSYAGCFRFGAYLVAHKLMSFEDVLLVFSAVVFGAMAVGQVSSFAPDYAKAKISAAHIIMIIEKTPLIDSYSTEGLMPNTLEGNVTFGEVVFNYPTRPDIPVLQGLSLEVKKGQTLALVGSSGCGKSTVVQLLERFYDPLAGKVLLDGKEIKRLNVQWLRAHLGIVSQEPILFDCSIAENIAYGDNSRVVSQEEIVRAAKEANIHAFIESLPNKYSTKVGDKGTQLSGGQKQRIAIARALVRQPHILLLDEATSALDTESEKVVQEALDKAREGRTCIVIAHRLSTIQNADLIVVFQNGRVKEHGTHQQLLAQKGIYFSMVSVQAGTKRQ
T3 sequence (P11712 whole entry): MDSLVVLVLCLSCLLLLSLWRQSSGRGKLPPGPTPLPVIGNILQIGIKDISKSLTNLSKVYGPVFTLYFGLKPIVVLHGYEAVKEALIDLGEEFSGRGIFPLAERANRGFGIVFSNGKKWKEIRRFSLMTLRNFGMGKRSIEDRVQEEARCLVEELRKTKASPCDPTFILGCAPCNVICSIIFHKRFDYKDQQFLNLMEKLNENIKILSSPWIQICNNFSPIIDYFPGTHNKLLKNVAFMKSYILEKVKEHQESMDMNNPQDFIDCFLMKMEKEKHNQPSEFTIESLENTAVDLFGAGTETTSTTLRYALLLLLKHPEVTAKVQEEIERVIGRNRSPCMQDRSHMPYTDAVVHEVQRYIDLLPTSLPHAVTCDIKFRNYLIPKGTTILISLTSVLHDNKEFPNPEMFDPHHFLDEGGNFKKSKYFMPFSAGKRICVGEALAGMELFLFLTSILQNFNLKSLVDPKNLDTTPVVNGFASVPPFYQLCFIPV
T1 sequence (P10635 whole entry): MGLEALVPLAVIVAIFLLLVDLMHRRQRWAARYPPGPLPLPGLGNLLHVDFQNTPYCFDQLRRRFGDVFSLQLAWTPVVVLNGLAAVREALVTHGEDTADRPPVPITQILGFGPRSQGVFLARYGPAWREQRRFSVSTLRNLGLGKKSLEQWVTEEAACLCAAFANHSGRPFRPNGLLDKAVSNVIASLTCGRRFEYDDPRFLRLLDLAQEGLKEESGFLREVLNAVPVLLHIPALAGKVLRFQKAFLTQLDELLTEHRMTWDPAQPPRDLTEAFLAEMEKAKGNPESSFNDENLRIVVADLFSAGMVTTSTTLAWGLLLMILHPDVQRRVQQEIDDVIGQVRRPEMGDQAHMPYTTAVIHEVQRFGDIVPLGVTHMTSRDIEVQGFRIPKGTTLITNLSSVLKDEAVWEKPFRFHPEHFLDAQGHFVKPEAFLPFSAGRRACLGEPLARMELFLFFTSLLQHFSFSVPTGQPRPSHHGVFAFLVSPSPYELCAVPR
T2 sequence (P08684 whole entry): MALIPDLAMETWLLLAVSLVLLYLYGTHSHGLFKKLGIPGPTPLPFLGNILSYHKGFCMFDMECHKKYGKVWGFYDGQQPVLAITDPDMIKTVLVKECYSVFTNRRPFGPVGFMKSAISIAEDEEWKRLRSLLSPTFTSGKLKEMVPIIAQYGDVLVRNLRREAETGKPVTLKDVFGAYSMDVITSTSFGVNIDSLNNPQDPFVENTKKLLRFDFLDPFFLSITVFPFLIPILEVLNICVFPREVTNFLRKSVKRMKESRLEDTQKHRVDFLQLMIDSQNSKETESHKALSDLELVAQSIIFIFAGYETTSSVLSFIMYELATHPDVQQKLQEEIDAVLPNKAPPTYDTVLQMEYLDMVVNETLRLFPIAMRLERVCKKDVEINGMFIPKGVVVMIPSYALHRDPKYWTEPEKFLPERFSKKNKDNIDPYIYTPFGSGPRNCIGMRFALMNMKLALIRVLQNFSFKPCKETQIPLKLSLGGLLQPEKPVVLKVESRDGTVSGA

| IC50 (cytochrome P450 2D6) [µM] | IC50 (cytochrome P450 3A4) [µM] | IC50 (cytochrome P450 2C9) [µM] | IC50 (cytochrome P450 1A2) [µM] | efflux ratio at 120 min, 5 μM (P-gp) | Structure (SMILES) |
| --- | --- | --- | --- | --- | --- |
| > 30 | > 30 | 9.8 | > 30 | 8.9 | Fc1cc(F)c(F)c(-c2ccc(N[C@H]3C[C@@H]4CN(CC5CCOCC5)C[C@@H]4C3)nn2)c1 [Compound 1, (3aR,5s,6aS)-2-((tetrahydro-2H-pyran-4-yl)methyl)-N-(6-(2,3,5-trifluorophenyl)pyridazin-3-yl)octahydrocyclopenta[c]pyrrol-5-amine] |
| > 30 | > 30 | > 30 | 22.6 | 2.6 | Fc1cc(F)c(F)c(-c2ccc(N[C@H]3C[C@@H]4CN(Cc5ccccn5)C[C@@H]4C3)nn2)c1 [Compound 2, (3aR,5s,6aS)-2-(pyridin-2-ylmethyl)-N-(6-(2,3,5-trifluorophenyl)pyridazin-3-yl)octahydrocyclopenta[c]pyrrol-5-amine] |
